ChEMBL document CHEMBL2331515, “Design, synthesis, and pharmacological characterization of novel endomorphin-1 analogues as extremely potent μ-opioid agonists” (J Med Chem, 2013)
The source made the active and inactive calls. The calls are words filed in the database; no cut-off is given here.

Tests used:
Mus musculus [1] = assay: Antinociceptive activity in Kunming mouse assessed as tail withdrawal latency at 2 mg/kg, iv after 15 to 20 mins by hot water tail-flick test relative to control; type: functional, organism-based; set-up: dose 2 mg/kg
Mus musculus [2] = assay: Antinociceptive activity in Kunming mouse assessed as tail withdrawal latency at 2 mg/kg, iv by hot water tail-flick test in presence of naloxone methiodide; type: functional, organism-based; set-up: dose 2 mg/kg
Mus musculus [3] = assay: Antinociceptive activity in Kunming mouse assessed as tail withdrawal latency at 2 mg/kg, iv by hot water tail-flick test in presence of naloxone; type: functional, organism-based; set-up: dose 2 mg/kg
[4] = Half life in mouse brain homogenate by RP-HPLC analysis; type: ADME, tissue-based
Mu-type opioid receptor [5] = target: T1, Mu-type opioid receptor (Homo sapiens, UniProt P35372); assay: Agonist activity at FLAG-tagged mu-type opioid receptor (unknown origin) expressed in HEK293 cells assessed as stimulation of ERK1/2 phosphorylation at 1 uM after 10 mins by Western blotting analysis; type: cell-based; settings: TDE = time-dependent effect
[6] = target: T2, Delta-type opioid receptor (Homo sapiens, UniProt P41143); assay: Agonist activity at Myc-tagged delta-type opioid receptor (unknown origin) expressed in HEK293 cells assessed as inhibition of forskolin-stimulated cAMP accumulation after 30 mins by liquid scintillation counting analysis; type: functional, cell-based
[7] = target: Kappa-type opioid receptor (Homo sapiens, UniProt P41145); assay: Displacement of [3H]U69,593 from kappa-type opioid receptor (unknown origin) expressed in HEK293 cells after 60 mins by liquid scintillation counting analysis; type: cell-based
Mu-type opioid receptor [8] = target: T1, Mu-type opioid receptor; assay: Displacement of [3H]DAMGO from FLAG-tagged mu-type opioid receptor (unknown origin) expressed in HEK293 cells after 60 mins by liquid scintillation counting analysis; type: cell-based
[9] = target: T2, Delta-type opioid receptor; assay: Displacement of [3H]DPDPE from Myc-tagged delta-type opioid receptor (unknown origin) expressed in HEK293 cells after 60 mins by liquid scintillation counting analysis; type: cell-based
Mus musculus [10] = assay: Antinociceptive activity in icv dosed Kunming mouse assessed as tail withdrawal latency by hot water tail-flick test in presence of naloxone; type: functional, organism-based
[11] = Selectivity ratio of Ki for kappa-type opioid receptor (unknown origin) to Ki for FLAG-tagged mu-type opioid receptor (unknown origin); settings: Homo sapiens
[12] = target: Mu-type opioid receptor (Mus musculus) (UniProt P42866); assay: Agonist activity at mu-type opioid receptor in Kunming mouse vas deferens assessed as inhibition of electrically evoked muscle contraction in presence of naltrindole
Homo sapiens = species: Homo sapiens; assay: Selectivity ratio of Ki for Myc-tagged delta-type opioid receptor (unknown origin) to Ki for FLAG-tagged mu-type opioid receptor (unknown origin)
Mus musculus [13] = assay: Antinociceptive activity in Kunming mouse assessed as tail withdrawal latency at 0.67 to 20 nmol/kg, icv by hot water tail-flick test; type: functional, organism-based; settings: TDE = time-dependent effect
Mu-type opioid receptor [14] = target: T1, Mu-type opioid receptor; assay: Agonist activity at FLAG-tagged mu-type opioid receptor (unknown origin) expressed in HEK293 cells assessed as inhibition of forskolin-stimulated cAMP accumulation after 30 mins by liquid scintillation counting analysis; type: functional, cell-based
Mus musculus [15] = assay: Antinociceptive activity in icv dosed Kunming mouse assessed as tail withdrawal latency by hot water tail-flick test; type: functional; settings: for ED50: central
[16] = target: T2, Delta-type opioid receptor; assay: Agonist activity at Myc-tagged delta-type opioid receptor (unknown origin) expressed in HEK293 cells assessed as inhibition of forskolin-stimulated cAMP accumulation after 30 mins by liquid scintillation counting analysis relative to DAMGO; type: functional, cell-based
Mu-type opioid receptor [17] = target: T1, Mu-type opioid receptor; assay: Agonist activity at FLAG-tagged mu-type opioid receptor (unknown origin) expressed in HEK293 cells assessed as inhibition of forskolin-stimulated cAMP accumulation after 30 mins by liquid scintillation counting analysis relative to DAMGO; type: functional, cell-based
Mu-type opioid receptor [18] = target: Mu-type opioid receptor (Cavia porcellus, UniProt P97266); assay: Agonist activity at mu-type opioid receptor in guinea pig ileum assessed as inhibition of electrically evoked muscle contraction; type: tissue-based
Mu-type opioid receptor [19] = target: T1, Mu-type opioid receptor; assay: Agonist activity at FLAG-tagged mu-type opioid receptor (unknown origin) expressed in HEK293 cells assessed as stimulation of ERK1/2 phosphorylation at 1 uM after 2 mins by Western blotting analysis; type: cell-based
Mu-type opioid receptor [20] = target: Mu-type opioid receptor (Mus musculus, UniProt P42866); assay: Agonist activity at mu-type opioid receptor in Kunming mouse vas deferens assessed as inhibition of electrically evoked muscle contraction
Chain of Mu-type opioid receptor (Mus musculus, UniProt P42866) (P42866 whole entry): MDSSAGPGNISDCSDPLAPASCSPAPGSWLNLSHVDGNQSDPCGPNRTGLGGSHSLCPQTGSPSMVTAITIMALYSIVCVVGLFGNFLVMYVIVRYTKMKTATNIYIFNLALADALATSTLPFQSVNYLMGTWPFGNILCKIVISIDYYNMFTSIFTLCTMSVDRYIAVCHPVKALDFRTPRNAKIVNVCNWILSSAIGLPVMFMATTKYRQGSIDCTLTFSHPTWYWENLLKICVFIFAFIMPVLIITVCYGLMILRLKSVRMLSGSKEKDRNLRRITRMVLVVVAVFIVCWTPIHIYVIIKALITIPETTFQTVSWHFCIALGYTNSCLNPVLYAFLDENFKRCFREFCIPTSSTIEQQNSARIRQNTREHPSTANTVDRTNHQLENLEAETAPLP

Chain of Mu-type opioid receptor (Cavia porcellus, UniProt P97266) (P97266 whole entry): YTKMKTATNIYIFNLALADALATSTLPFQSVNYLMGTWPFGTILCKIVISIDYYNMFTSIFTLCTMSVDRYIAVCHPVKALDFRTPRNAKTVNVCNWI
Chain of Kappa-type opioid receptor (P41145 whole entry): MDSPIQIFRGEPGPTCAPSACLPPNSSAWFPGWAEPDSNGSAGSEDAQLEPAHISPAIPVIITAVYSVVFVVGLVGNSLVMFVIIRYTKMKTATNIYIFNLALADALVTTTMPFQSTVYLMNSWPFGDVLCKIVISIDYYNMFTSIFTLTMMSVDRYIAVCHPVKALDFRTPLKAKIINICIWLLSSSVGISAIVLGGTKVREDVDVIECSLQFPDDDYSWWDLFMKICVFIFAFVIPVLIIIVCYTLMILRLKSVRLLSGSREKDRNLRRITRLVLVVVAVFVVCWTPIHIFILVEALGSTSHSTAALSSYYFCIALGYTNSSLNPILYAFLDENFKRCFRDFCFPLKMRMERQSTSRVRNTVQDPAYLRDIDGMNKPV
T2 sequence (P41143 whole entry): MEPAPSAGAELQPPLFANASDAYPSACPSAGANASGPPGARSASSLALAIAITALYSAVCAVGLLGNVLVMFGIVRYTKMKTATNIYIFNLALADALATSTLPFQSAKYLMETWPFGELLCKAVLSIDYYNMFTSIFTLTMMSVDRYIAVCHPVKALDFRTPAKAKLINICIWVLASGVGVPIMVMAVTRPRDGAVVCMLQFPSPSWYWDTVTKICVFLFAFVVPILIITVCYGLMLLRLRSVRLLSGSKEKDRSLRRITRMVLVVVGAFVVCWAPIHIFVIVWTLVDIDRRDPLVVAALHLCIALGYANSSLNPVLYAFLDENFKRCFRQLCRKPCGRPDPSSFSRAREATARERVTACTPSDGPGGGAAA
Chain of Mu-type opioid receptor (Mus musculus) (P42866 whole entry): as the sequence (P42866 whole entry) above
T1 sequence (P35372 whole entry): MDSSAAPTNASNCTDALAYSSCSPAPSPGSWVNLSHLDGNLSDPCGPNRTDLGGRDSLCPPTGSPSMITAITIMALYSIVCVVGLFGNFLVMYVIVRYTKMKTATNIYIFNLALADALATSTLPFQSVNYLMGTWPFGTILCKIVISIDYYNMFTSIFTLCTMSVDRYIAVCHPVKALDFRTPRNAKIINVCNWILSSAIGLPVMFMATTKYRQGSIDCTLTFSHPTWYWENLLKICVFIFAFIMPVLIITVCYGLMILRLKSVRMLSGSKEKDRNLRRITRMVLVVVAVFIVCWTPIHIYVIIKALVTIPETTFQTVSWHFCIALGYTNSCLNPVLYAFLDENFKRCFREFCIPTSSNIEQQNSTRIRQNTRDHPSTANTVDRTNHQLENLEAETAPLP

CN1CC[C@]23c4c5ccc(O)c4O[C@H]2[C@@H](O)C=C[C@H]3[C@H]1C5
Activity (Mus musculus [1]): Active | Activity (Mus musculus [2]): Active | Activity (Mus musculus [3]): inactive

C=C(C(N)=O)[C@@H](NC(=O)[C@H](Cc1c[nH]c2ccccc12)NC(=O)[C@H]1CCN(C(=O)[C@@H](N)Cc2c(C)cc(O)cc2C)C1)c1ccco1
Activity (Mus musculus [1]): Active | half-life [4]: > 10 h | Activity (Mu-type opioid receptor [5]): tde | Activity [6]: Dose-dependent effect | EC50 [6]: 47.3 nM | Ki [7]: 180 nM | Ki (Mu-type opioid receptor [8]): 0.0128 nM | Ki [9]: 30.4 nM | Activity (Mus musculus [10]): inactive | Ratio Ki [11]: 14100 | inhibition [12]: Active | Ratio Ki (Homo sapiens): 2380 | Activity (Mus musculus [13]): tde | EC50 (Mu-type opioid receptor [14]): 0.000109 nM | inhibition (Mu-type opioid receptor [14]): Dose-dependent effect | Activity (Mus musculus [15]): Dose-dependent effect | ED50 (Mus musculus [15]): 0.00095 µmol/kg | Activity (Mus musculus [2]): Active | Emax [16]: 72.2% | Emax (Mu-type opioid receptor [17]): 98.6% | IC50 (Mu-type opioid receptor [18]): 0.834 nM | Activity (Mu-type opioid receptor [19]): Active | IC50 (Mu-type opioid receptor [20]): 0.962 nM | Activity (Mus musculus [3]): inactive

C=C(C(N)=O)[C@@H](NC(=O)[C@H](Cc1c[nH]c2ccccc12)NC(=O)[C@@H]1CCN(C(=O)[C@@H](N)Cc2c(C)cc(O)cc2C)C1)c1ccccc1
Activity (Mus musculus [1]): Active | half-life [4]: > 10 h | Activity (Mu-type opioid receptor [5]): tde | Activity [6]: Dose-dependent effect | EC50 [6]: 47.9 nM | Ki [7]: 174 nM | Ki (Mu-type opioid receptor [8]): 0.00986 nM | Ki [9]: 27.3 nM | Activity (Mus musculus [10]): inactive | Ratio Ki [11]: 17600 | inhibition [12]: Active | Ratio Ki (Homo sapiens): 2770 | Activity (Mus musculus [13]): tde | inhibition (Mu-type opioid receptor [14]): Dose-dependent effect | Activity (Mus musculus [15]): Dose-dependent effect | ED50 (Mus musculus [15]): 0.000822 µmol/kg | Activity (Mus musculus [2]): Active | Emax [16]: 72.1% | Emax (Mu-type opioid receptor [17]): 98.9% | IC50 (Mu-type opioid receptor [18]): 0.226 nM | Activity (Mu-type opioid receptor [19]): Active | IC50 (Mu-type opioid receptor [20]): 0.406 nM | Activity (Mus musculus [3]): inactive

C=C(C(N)=O)[C@@H](NC(=O)[C@H](Cc1c[nH]c2ccccc12)NC(=O)[C@@H]1CCN(C(=O)[C@@H](N)Cc2ccc(O)cc2)C1)c1ccccc1
Activity [6]: Dose-dependent effect | Ki (Mu-type opioid receptor [8]): 0.296 nM | Ki [9]: 2810 nM | inhibition [12]: Active | Ratio Ki (Homo sapiens): 9490 | EC50 (Mu-type opioid receptor [14]): 0.0397 nM | inhibition (Mu-type opioid receptor [14]): Dose-dependent effect | Emax (Mu-type opioid receptor [17]): 96.8% | IC50 (Mu-type opioid receptor [18]): 1.82 nM | IC50 (Mu-type opioid receptor [20]): 2.28 nM

C=C(C(=O)O)[C@@H](NC(=O)[C@H](Cc1c[nH]c2ccccc12)NC(=O)[C@@H]1CCCN1C(=O)[C@@H](N)Cc1c(C)cc(O)cc1C)c1ccco1
Activity [6]: Dose-dependent effect | EC50 [6]: 48.9 nM | Ki [7]: 200 nM | Ki (Mu-type opioid receptor [8]): 0.0405 nM | Ki [9]: 22.2 nM | Ratio Ki [11]: 4940 | inhibition [12]: Active | Ratio Ki (Homo sapiens): 548 | EC50 (Mu-type opioid receptor [14]): 0.000516 nM | inhibition (Mu-type opioid receptor [14]): Dose-dependent effect | Emax [16]: 76.3% | Emax (Mu-type opioid receptor [17]): 96.5% | IC50 (Mu-type opioid receptor [18]): 0.767 nM | IC50 (Mu-type opioid receptor [20]): 0.533 nM

C=C(C(N)=O)[C@@H](NC(=O)[C@H](Cc1c[nH]c2ccccc12)NC(=O)[C@H]1CCN(C(=O)[C@@H](N)Cc2ccc(O)cc2)C1)c1ccccc1
Activity [6]: Dose-dependent effect | Ki (Mu-type opioid receptor [8]): 0.574 nM | Ki [9]: 5580 nM | inhibition [12]: Active | Ratio Ki (Homo sapiens): 9720 | EC50 (Mu-type opioid receptor [14]): 0.057 nM | inhibition (Mu-type opioid receptor [14]): Dose-dependent effect | Emax (Mu-type opioid receptor [17]): 95.5% | IC50 (Mu-type opioid receptor [18]): 3.21 nM | IC50 (Mu-type opioid receptor [20]): 4.89 nM

C=C(C(N)=O)[C@@H](NC(=O)[C@H](Cc1c[nH]c2ccccc12)NC(=O)[C@H]1CCN(C(=O)[C@@H](N)Cc2ccc(O)cc2)C1)c1ccco1
Activity [6]: Dose-dependent effect | Ki (Mu-type opioid receptor [8]): 0.758 nM | Ki [9]: 6950 nM | inhibition [12]: Active | Ratio Ki (Homo sapiens): 9170 | EC50 (Mu-type opioid receptor [14]): 0.0933 nM | inhibition (Mu-type opioid receptor [14]): Dose-dependent effect | Emax (Mu-type opioid receptor [17]): 94.9% | IC50 (Mu-type opioid receptor [18]): 8.12 nM | IC50 (Mu-type opioid receptor [20]): 4.9 nM

C=C(C(N)=O)[C@@H](NC(=O)[C@H](Cc1c[nH]c2ccccc12)NC(=O)[C@@H]1CCN(C(=O)[C@@H](N)Cc2ccc(O)cc2)C1)c1ccco1
Activity [6]: Dose-dependent effect | Ki (Mu-type opioid receptor [8]): 0.165 nM | Ki [9]: 2780 nM | inhibition [12]: Active | Ratio Ki (Homo sapiens): 16800 | EC50 (Mu-type opioid receptor [14]): 0.00853 nM | inhibition (Mu-type opioid receptor [14]): Dose-dependent effect | Emax (Mu-type opioid receptor [17]): 96.2% | IC50 (Mu-type opioid receptor [18]): 1.67 nM | IC50 (Mu-type opioid receptor [20]): 2.91 nM

C=C(C(N)=O)[C@@H](NC(=O)[C@H](Cc1c[nH]c2ccccc12)NC(=O)[C@@H]1CCN(C(=O)[C@@H](N)Cc2c(C)cc(O)cc2C)C1)c1ccco1
Activity (Mus musculus [1]): Active | half-life [4]: > 10 h | Activity (Mu-type opioid receptor [5]): tde | Activity [6]: Dose-dependent effect | EC50 [6]: 89.3 nM | Ki [7]: 205 nM | Ki (Mu-type opioid receptor [8]): 0.00372 nM | Ki [9]: 19.8 nM | Activity (Mus musculus [10]): inactive | Ratio Ki [11]: 55100 | inhibition [12]: Active | Ratio Ki (Homo sapiens): 5320 | Activity (Mus musculus [13]): tde | inhibition (Mu-type opioid receptor [14]): Dose-dependent effect | Activity (Mus musculus [15]): Dose-dependent effect | ED50 (Mus musculus [15]): 0.000532 µmol/kg | Activity (Mus musculus [2]): Active | Emax [16]: 73.8% | Emax (Mu-type opioid receptor [17]): 99.5% | IC50 (Mu-type opioid receptor [18]): 0.167 nM | Activity (Mu-type opioid receptor [19]): Active | IC50 (Mu-type opioid receptor [20]): 0.548 nM | Activity (Mus musculus [3]): inactive

C=C(C(=O)O)[C@@H](NC(=O)[C@H](Cc1c[nH]c2ccccc12)NC(=O)[C@@H]1CCCN1C(=O)[C@@H](N)Cc1c(C)cc(O)cc1C)c1ccccc1
Activity [6]: Dose-dependent effect | EC50 [6]: 51.6 nM | Ki [7]: 192 nM | Ki (Mu-type opioid receptor [8]): 0.0322 nM | Ki [9]: 25.6 nM | Ratio Ki [11]: 5960 | inhibition [12]: Active | Ratio Ki (Homo sapiens): 795 | EC50 (Mu-type opioid receptor [14]): 0.00013 nM | inhibition (Mu-type opioid receptor [14]): Dose-dependent effect | Emax [16]: 77.5% | Emax (Mu-type opioid receptor [17]): 97.2% | IC50 (Mu-type opioid receptor [18]): 0.467 nM | IC50 (Mu-type opioid receptor [20]): 0.556 nM

C=C(C(N)=O)[C@@H](NC(=O)[C@H](Cc1c[nH]c2ccccc12)NC(=O)[C@H]1CCN(C(=O)[C@@H](N)Cc2c(C)cc(O)cc2C)C1)c1ccccc1
Activity (Mus musculus [1]): Active | half-life [4]: > 10 h | Activity (Mu-type opioid receptor [5]): tde | Activity [6]: Dose-dependent effect | EC50 [6]: 40.4 nM | Ki [7]: 240 nM | Ki (Mu-type opioid receptor [8]): 0.0137 nM | Ki [9]: 18.9 nM | Activity (Mus musculus [10]): inactive | Ratio Ki [11]: 17500 | inhibition [12]: Active | Ratio Ki (Homo sapiens): 1380 | Activity (Mus musculus [13]): tde | EC50 (Mu-type opioid receptor [14]): 0.000107 nM | inhibition (Mu-type opioid receptor [14]): Dose-dependent effect | Activity (Mus musculus [15]): Dose-dependent effect | ED50 (Mus musculus [15]): 0.000779 µmol/kg | Activity (Mus musculus [2]): Active | Emax [16]: 77.6% | Emax (Mu-type opioid receptor [17]): 97.1% | IC50 (Mu-type opioid receptor [18]): 0.539 nM | Activity (Mu-type opioid receptor [19]): Active | IC50 (Mu-type opioid receptor [20]): 1.53 nM | Activity (Mus musculus [3]): inactive
